Assay [1] addresses T1, NMDAR (Homo sapiens, UniProt Q05586).
T1 construct: endogenous in cells; host or cells: NT2-N neurons differentiated from NTERA-2 cl.D1 [NT2/D1] cells (ATCC CRL-1973)
Briefly: Measurement of calcium influx through NMDAR into NT2-N cells. Format: cell-based. As to conditions: Cal-520, NT2-N cells, antagonist 50 μM. As to the method:
Cultured neurons expressing NMDARs retaining physiological functions were prepared by the following procedure to evaluate the NMDAR activation ability of the tau oligomer. The NTERA-2 cl.D1[NT2/D1] cells (ATCC CRL-1973) (hereinafter described as “NT2 cell”), which are derived from a human pluripotent embryonic cancer, were adhesively cultured on 10-cm plastic dish in maintenance culture medium (high glucose DMEM (Sigma-Aldrich, D6429), 10% FBS, 100 U/ml penicillin/streptomycin) under the conditions of 37° C. and 5% CO2 for 3 to 4 days until the confluency stage was attained. The NT2 cells were detached using Accutase (Innovative Cell Technologies, #AT104), were passaged, and were maintained over a period of 50 days. The medium was replaced 3 times a week.
The maintenance-cultured NT2 cells were dispersed in a low attachment petri dish (STAR SDish9015, RIKAKEN CO., LTD.) in a concentration of 1.5×10^6 to 2.5×10^6/dish, suspension-cultured under the conditions of 37° C. and 5% CO2 on a shaker (100 rpm), and 1 day later were induced to differentiate by adding 1 μM of all-trans-retinoic acid (abcam), to thereby form spheroids. 14 days later, the spheroids were collected, seeded in a 10-cm dish coated with 5 μg/ml of poly-D-lysin (PDL) (Sigma-Aldrich)/Laminin (LAM) (iMatrix-511, Nippi Inc.) and adhesively cultured under the conditions of 37° C. and 5% CO2. From the following day, the culture was carried out by adding 3 kinds of cell division inhibitors (10 μM of uridine, 10 μM of floxuridine, and 1 μM of AraC). […]
For analysis, 5 to 10 regions of the visual field of the NT2-N cells positioned in the system were manually set and the fluorescence intensities were recorded for each region, for Cal-520, every 1 minute for 1 hour continuously at excitation wavelength 480 nm/fluorescence emission wavelength 520 nm, and for Fluo-8, every 2 seconds for 5 minutes continuously at excitation wavelength 480 nm/fluorescence emission wavelength 520 nm. […]

The test system of the next assay is NT2-N cells. As to the kind of experiment: Adhesion activity of tau oligomers to NT2-N cell surface (fluorescence microscopy). The format is cell-based, human. As to conditions: on ice 30 minutes, no membrane permeabilization. How it is done:
Cal-520 AM was loaded to the NT2-N cells prepared in the above (4-1) by the procedure of the above (4-2), exposed to the tau oligomer sample (10 μl/ml) prepared in the above (1-3) and incubated on ice for 30 minutes. Subsequently, the cells were washed 3 times with DPBS(−) (137 mM of NaCl, 2.68 mM of KCl, 1.47 mM of KH2PO4, 8.06 mM of Na2HPO4) and fixed with 4% paraformaldehyde at room temperature for 15 minutes. After thorough washing with DPBS(−) (10 minutes×3 times), blocking was done with 1% BSA and 3% donkey serum/DPBS for 30 minutes. Then, the anti-phosphorylated tau antibody (anti-pTau (paired pS409, pS412, pS413), AnaSpec, #AS-55416) (1:1500 dilution) as the primary antibody was reacted at room temperature for 1 hour, and Alexa594-labelled anti-mouse IgG (Jackson Immuno Research, #711-585-152) (1:1500 dilution) as a secondary antibody was reacted at room temperature for 30 minutes, to thereby carry out immunostaining. The stained cells were observed using a fluorescence microscope (BZ-X710, Keyence Corporation).
The HT-tau oligomer sample prepared in the above (1-4), instead of the tau oligomer sample prepared in the above (1-3), was exposed to the NT2-N cells by the same procedure as in the above (5-1). After thorough washing, fluorescence microscopic observation was carried out.

The next assay addresses T2, NMDAR complex (Mus musculus, UniProt P35436+P35438+Q01097).
T2 construct: from tissue
As to the kind of experiment: Far-western blot of HT-tau oligomer on NMDAR complex. As to conditions: anti-HaloTag detection. Format: binding. The text has this: The membrane protein prepared by the procedure of the above (7-1) was applied to blue native PAGE (NativePAGE™ 3-12% Bis-Tris Protein Gel (Thermo Fisher Scientific, #BN1003BOX); NativePAGE™ Sample Prep Kit (Thermo Fisher Scientific, #BN2008); and NativePAGE™ Running Buffer Kit (Thermo Fisher Scientific, #BN2007) were used) to thereby obtain crude purified NMDAR (complex of a NMDAR4 tetramer and scaffolding proteins such as PSD95, hereinafter simply described as “NMDAR complex”). The NMDAR complex was transferred from the gel after electrophoresis to PVDF membrane (Merck Millipore, #IPVH00010) (transcription buffer: 25 mM of Tris, 192 mM of glycine, 0.1% SDS, 10% Methanol, pH 8.0). […] Subsequently, the membrane was washed, and the tau oligomer adsorbed onto the PVDF membrane was detected by an anti-HaloTag antibody (Promega Corporation, #G928A) (1:1500 dilution) and an HRP-labelled secondary antibody (Jackson Immuno Research, #111-035-144). Additionally, in a replication experiment carried out in parallel, the NMDAR complex was detected by the same procedure without the exposing step to the tau oligomer sample and using an anti-NR1 antibody (Merck Millipore, #MAB363) (1:2000 dilution), instead of the anti-HaloTag antibody.

The subject of assay [2] is NMDAR. Briefly: Dot blot of gel-filtered tau oligomer fractions on NMDAR-containing membrane protein. As to conditions: fractions 7 and 8 compared with fractions 6, 9 and 10. The format is binding, mouse. How it is done:
The membrane protein solution prepared by the procedure of the above (7-1) was diluted 16-fold with the above wash buffer and was spotted (1.5 μl/spot) on a nitrocellulose membrane. Then, the membrane was thoroughly dried to thereby obtain a nitrocellulose membrane on which the NMDAR-containing membrane protein was immobilized. On the other hand, a reaction solution before ultracentrifugation to be obtained in the process of preparing the HT-tau oligomer sample of the above (1-4) was fractionated using a gel filtration column (Superdex 200 10/300 GL column, GE Healthcare) (flow rate 0.5 ml/min, fractionated by 1 ml) to thereby obtain tau oligomer fractions in various sizes. Each of the obtained tau oligomer fractions was exposed to the nitrocellulose membrane on which the NMDAR-containing membrane protein was immobilized, to thereby detect the tau oligomers adsorbed onto the nitrocellulose membrane in the same manner as the detection procedure of tau oligomer in the above (7-2).

The next assay concerns membrane protein (NMDAR). As to the kind of experiment: Membrane protein-based sandwich ELISA. As to conditions: data not shown. The format is binding, mouse. How it is done: Pellets of the membrane protein obtained from tau knockout brain by the procedure of the above (7-1) were dissolved in 2% cholic acid or 1% deoxycholate/buffer (50 mM of HEPES, 150 mM of NaCl, pH 7.4), and the solution was centrifuged at 4° C., 150,000×g for 30 minutes to thereby collect the supernatant to use as a membrane protein solution. The obtained membrane protein solution was applied to an ELISA plate (Sumitomo Bakelite Co., Ltd., MS-8596F) and incubated at 4° C. for 60 minutes to thereby coat the plate with the membrane protein. After washing with wash solution (0.004 to 0.008% MNG-3, 50 mM of HEPES, pH 7.4), blocking was done by adding 1% FBS-containing wash solution and incubating at 4° C. for 60 minutes. The solvent of the HT-tau oligomer sample prepared in the above (1-4) was replaced with the wash solution using a protein concentrator (10K MWCO, Pierce, 88526) to thereby prepare a tau oligomer solution of 10^−16 to 10^−6 g/ml. These solutions were applied to the plate and incubated at 4° C. for 15 to 60 minutes. Then, the plate was washed thoroughly with the wash solution and a 5% skim milk-containing wash solution was added, followed by incubating at room temperature for 30 minutes to thereby block the protein. After washing using the wash solution, an anti-HaloTag antibody/wash solution (1:1000 dilution) was added and incubated at room temperature for 30 minutes. Subsequently, the plate was washed with the wash solution, an HRP-labelled secondary antibody/wash solution (Invitrogen, A27036) (1:5000 dilution) was added and incubated at room temperature for 30 minutes. Then, chromogenic reactions were carried out using an Ultra TMB solution (Thermo Fisher Scientific, 34028) to detect the tau oligomers bound to the membrane protein.
(In general: ELISA stands for enzyme-linked immunosorbent assay.)

The next assay deals with NMDA receptor. Briefly: NMDAR-based sandwich ELISA. The format is binding, mouse.

T2 sequence (P35436 23-1464, other chains not shown): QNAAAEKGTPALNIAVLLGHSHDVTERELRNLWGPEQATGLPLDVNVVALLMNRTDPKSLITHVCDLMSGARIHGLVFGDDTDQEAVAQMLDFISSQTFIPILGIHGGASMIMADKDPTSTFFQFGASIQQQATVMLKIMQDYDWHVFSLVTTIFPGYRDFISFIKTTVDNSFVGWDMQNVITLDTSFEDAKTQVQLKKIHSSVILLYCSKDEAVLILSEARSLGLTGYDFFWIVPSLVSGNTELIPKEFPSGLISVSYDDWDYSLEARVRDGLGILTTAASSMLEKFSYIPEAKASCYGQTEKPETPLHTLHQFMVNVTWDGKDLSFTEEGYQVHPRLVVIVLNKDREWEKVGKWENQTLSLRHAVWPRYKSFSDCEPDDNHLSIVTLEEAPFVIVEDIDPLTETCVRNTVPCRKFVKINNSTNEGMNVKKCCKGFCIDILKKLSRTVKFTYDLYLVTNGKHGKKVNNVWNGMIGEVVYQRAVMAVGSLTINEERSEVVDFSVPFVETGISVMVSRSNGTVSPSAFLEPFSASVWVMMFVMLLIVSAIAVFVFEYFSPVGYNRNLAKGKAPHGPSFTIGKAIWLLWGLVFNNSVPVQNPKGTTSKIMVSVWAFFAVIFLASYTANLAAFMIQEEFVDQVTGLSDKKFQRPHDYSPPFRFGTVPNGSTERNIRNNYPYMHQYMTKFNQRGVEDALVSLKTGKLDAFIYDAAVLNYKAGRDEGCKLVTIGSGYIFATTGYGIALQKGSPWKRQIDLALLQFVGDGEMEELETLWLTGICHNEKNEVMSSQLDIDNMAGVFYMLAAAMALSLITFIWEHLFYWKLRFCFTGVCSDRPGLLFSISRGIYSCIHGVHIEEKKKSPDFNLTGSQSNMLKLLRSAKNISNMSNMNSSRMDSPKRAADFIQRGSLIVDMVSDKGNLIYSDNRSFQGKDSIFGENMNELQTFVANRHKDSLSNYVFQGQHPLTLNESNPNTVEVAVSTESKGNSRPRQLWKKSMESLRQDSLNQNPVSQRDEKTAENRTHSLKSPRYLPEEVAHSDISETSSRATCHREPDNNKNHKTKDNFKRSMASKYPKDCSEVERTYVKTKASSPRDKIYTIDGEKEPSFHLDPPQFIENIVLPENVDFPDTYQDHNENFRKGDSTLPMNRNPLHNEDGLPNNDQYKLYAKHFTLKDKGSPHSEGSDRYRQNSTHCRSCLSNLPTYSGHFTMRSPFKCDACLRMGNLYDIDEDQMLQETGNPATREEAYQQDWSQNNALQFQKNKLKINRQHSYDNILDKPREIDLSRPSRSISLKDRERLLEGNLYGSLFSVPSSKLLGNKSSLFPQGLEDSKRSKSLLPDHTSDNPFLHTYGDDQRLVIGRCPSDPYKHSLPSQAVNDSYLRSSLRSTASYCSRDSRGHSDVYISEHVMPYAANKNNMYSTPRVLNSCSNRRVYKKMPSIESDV
T2 sequence (Q01097 27-1482, other chains not shown): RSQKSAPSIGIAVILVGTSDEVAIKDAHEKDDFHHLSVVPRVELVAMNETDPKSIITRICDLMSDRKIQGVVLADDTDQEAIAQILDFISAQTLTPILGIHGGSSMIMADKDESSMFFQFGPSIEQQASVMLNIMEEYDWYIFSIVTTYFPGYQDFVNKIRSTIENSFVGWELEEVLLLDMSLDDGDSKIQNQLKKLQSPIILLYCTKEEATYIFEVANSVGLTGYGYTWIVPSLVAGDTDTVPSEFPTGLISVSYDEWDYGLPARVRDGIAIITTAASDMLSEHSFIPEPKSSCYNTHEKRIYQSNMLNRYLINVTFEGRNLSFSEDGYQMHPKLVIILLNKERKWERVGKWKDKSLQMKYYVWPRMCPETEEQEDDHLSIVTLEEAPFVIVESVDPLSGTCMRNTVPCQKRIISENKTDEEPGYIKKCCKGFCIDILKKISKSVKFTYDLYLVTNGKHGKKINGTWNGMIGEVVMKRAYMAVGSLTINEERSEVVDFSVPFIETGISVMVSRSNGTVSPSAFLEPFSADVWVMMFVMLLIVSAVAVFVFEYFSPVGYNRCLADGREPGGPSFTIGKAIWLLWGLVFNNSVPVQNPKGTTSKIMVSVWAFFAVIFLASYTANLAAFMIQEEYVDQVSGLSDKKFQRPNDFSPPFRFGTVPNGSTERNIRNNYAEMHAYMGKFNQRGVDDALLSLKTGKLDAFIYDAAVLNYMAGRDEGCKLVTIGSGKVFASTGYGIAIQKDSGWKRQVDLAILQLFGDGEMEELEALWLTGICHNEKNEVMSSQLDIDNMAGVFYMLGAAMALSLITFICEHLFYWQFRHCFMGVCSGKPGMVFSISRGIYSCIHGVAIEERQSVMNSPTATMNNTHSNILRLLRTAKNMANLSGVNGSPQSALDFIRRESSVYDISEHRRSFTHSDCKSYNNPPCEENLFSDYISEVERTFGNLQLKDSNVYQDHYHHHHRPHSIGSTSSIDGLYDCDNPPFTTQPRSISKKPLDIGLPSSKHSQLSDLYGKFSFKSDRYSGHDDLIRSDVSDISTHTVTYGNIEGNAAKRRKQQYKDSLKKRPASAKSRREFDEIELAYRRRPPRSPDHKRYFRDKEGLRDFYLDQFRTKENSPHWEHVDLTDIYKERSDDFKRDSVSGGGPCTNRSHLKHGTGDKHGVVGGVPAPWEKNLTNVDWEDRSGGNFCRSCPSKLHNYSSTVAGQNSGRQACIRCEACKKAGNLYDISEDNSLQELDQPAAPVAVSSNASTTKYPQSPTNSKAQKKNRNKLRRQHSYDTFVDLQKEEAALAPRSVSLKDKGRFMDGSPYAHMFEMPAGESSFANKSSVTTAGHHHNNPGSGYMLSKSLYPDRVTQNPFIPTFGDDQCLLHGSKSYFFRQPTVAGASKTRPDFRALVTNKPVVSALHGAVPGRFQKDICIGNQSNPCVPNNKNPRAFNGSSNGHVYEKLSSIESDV

As for `NC(CCCP(=O)(O)O)C(=O)O` (stereo not shown) [APS, 2-amino-5-phosphonopentanoic acid, reference compound], the “increase of the intracellular calcium concentration induced by the tau oligomer, in presence of antagonist” value on NMDAR [1] was “lost”. “HT-tau oligomer: tau oligomer prepared from tau monomer and HaloTag-fused tau monomer mixed in a ratio of 4:1”: the “adhesion to the cell surface” value in the assay with NT2-N cells is “patchy pattern of fluorescence was observed”. Moreover, the “interaction with NMDAR complex (around 800 kDa and 1100 kDa)” value in the assay with NMDAR complex is “interacted with both of them”.

For “LMW TauO: comparatively low-molecular-weight tau oligomers contained in gel filtration fractions 7 and 8”, the “binding activity to NMDAR” value in the assay with NMDAR [2] is given as “strong binding activity”. `NCC(=O)O` [glycine, reference compound]: the “binding of the tau oligomer at low concentrations in the presence of NMDAR ligand” value in the assay on membrane protein (NMDAR) is “reduced”. On to `N[C@@H](CCC(=O)O)C(=O)O` [glutamate, reference compound], for which the “binding of the tau oligomer at low concentrations in the presence of NMDAR ligand” value in the assay on membrane protein (NMDAR) was “reduced”. Turning to “conantokin-G: a peptide blocking a ligand-binding site of the NMDA receptor (GEEELQENQELIREKSN) [reference compound]”, the “effect on binding of the tau oligomer to the NMDA receptor” value with NMDA receptor is recorded as “inhibited”.

(Values after US20210341448A1, “SCREENING METHOD FOR THERAPEUTIC DRUG OR PROPHYLACTIC DRUG FOR TAUOPATHY AND DIAGNOSTIC METHOD FOR TAUOPATHY” (National Center for Geriatrics and Gerontology, priority 2018, published 2021).)
